We go through two molecules from patent publication US20090305955A1, “Cyclopeptide with Anti-Cancer Activity Derived from Collagen Type IV” (priority 2006, published 2009).

Where a SMILES comes first, the peptide text is derived from it.

Assay [1] relates to UACC-903 human melanoma cells. In words: In vitro proliferation test (Wst-1 reagent). Type of assay: cell-based. To be noted: 48 hours. As to the method: FIG. 9: In vitro proliferation test for human melanoma cells UACC-903 in the presence of the cyclopeptide YSNSG (SEQ ID NO: 3). The UACC-903 cells were incubated for 48 hours in 24-well plates, with a control medium (negative control, white bar), a linear heptapeptide CNYYSNS (SEQ ID NO: 5) (positive control, black bar) or concentrations of cyclopeptide YSNSG (SEQ ID NO: 3) varying from 5 μM to 20 μm (grey bars).
B16F1 cells, a metastasic sub-line of B16 murine melanoma pulmonary cells (d-Dr M Grégoire, INSERM U419, Nantes, France) were cultivated in RPMI 1640 medium, supplemented with 5% foetal calf serum (FCS) in 25 cm^2 flasks (Nunclon, VWR Int, Strasbourg, France) in a humid atmosphere containing 5% CO2. UACC-903 cells, a melanoma cell line (Dr J Trent, Phoenix, Ariz.) were cultivated in DMEM medium containing 4.5 g/l glucose, supplemented with 5% FCS in 25 cm^2 flasks (Nunclon) in a moist atmosphere containing 5% CO2. HMEC-1 cells (human microvascular entothelial cells; E W Ades, Center for Disease Control and Prevention, Atlanta, Ga.) and HUVEC cells (human umbilical vein endothelial cells) were cultivated in endothelial cell growth medium (ECGM) supplemented with ECGS/H at 0.4% (by weight), 2% (by volume) foetal calf serum, epidermal growth factor (EGF) 10 ng/ml, 1 μg/ml of hydrocortisone, 50 ng/ml of amphotericin B and 50 μg/ml of gentamicin.
Cell proliferation was determined using the reagent Wst-1 following the manufacturer's instructions. This reagent contains a tetrazolium salt which is reduced by mitochondrial oxido-reductases and allows the proliferation and viability of cells to be evaluated. Its reduction gives rise to a soluble formazan derivative which is yellow in colour. Before reaching confluence, the cells were washed twice with a saline solution buffered with phosphate (phosphate buffered saline; PBS) to remove SVF residues and incubated for 48 hours in DMEM medium, in the presence or absence of synthetic peptides at concentrations of 0 to 20 μM. The medium was recovered then centrifuged at 500 g for 10 min at 4° C. to remove cell debris. The protein contents of the medium obtained was determined using Bradford's method using SAB as the reference.

A further assay concerns TIMP-3. Description: Reverse zymography of TIMP secretion, UACC-903 cells. It is filed as cell-based, human. As to conditions: conditioned culture medium. How it is done: (§1) FIG. 13: Effect of YSNSG (SEQ ID NO: 3) cyclopeptide on secretion of TIMP. The secretion of 3 tissue inhibitors of metalloproteinases (TIMP) was analyzed by reverse zymography (A) in a medium conditioned by control UACC-903 cells in the absence of peptide (negative control, white bar), on cells treated with the linear heptapeptide CNYYSNS (SEQ ID NO: 5) (20 μM) (positive control, black bar) or treated with cyclopeptide YSNSG (SEQ ID NO: 3) at a concentration from 5 μM to 20 μM (grey bars). The conditioned medium was recovered and analyzed as described in the methods.
(§2) The expression of MMP-2 and MMP-9 in a conditioned medium of UACC-903 cells, treated or not treated with synthetic peptides, was analyzed by zymography in the presence of gelatine as described above (Pasco et al, 2000(a)). The secretion of TIMP-2 was analyzed in a conditioned medium of UACC-903 cells by reverse zymography in the presence of gelatine, as described above (Pascal et al, 2000(a)).

A further assay concerns TIMP-1. Described as above. Type of assay: cell-based, human. To be noted: conditioned culture medium. How it is done: as §1, §2
The next assay has as its system TIMP-2. The assay is described as above. It is filed as cell-based, human. As to conditions: cyclopeptide 5 to 20 μM, linear heptapeptide 20 μM. As to the method: as §1, §2
The test system of the next assay is u-PA. In words: Zymography in the presence of gelatine and plasminogen, UACC-903 cells. It is filed as cell-based, human. As to conditions: cyclopeptide 5 to 20 μM, linear heptapeptide 20 μM. How it is done:
(§3) FIG. 14: Effect of YSNSG (SEQ ID NO: 3) cyclopeptide on the secretion of plasminogen activators. The secretion of u-PA (urokinase type plasminogen activator) and t-PA (tissue plasminogen activator) was analyzed by zymography in the presence of gelatine and plasminogen (A) in a medium conditioned by control UACC-903 cells in the absence of peptide (negative control, white bar), on cells treated with linear heptapeptide CNYYSNS (SEQ ID NO: 5) (20 μM) (positive control, black bar) or treated with the cyclopeptide YSNSG (SEQ ID NO: 3) at a concentration varying from 5 μM to 20 μM (grey bars). The conditioned medium was recovered and analyzed as described in the methods.
(§4) To determine the plasminogen activities, conditioned media of UACC-903 cells were analyzed by polyacrylamide gel electrophoresis in the presence of SDS and containing 1 mg/ml of gelatine and 10 μg/ml of plasminogen. After electrophoresis, the gels were incubated overnight at ambient temperature in a 100 mM glycine, 5 mM EDTA, pH 8.0 buffer.

The next assay deals with t-PA. Described as above. To be noted: cyclopeptide 5 to 20 μM, linear heptapeptide 20 μM. Type of assay: cell-based, human. How it is done:
as §3, §4

Another assay deals with UACC-903 melanoma cells. In words: In vitro invasion/migration test (modified Boyden chambers, Matrigel). As to conditions: 20 μM; 48 hours; Matrigel membranes, 10% FCS chemoattractive agent. It is filed as cell-based, human. As to the method: FIG. 10: In vitro migration test for UACC-903 human melanoma cells in the presence of the cyclopeptide YSNSG (SEQ ID NO: 3). The UACC-903 cells were incubated with a control medium (control, negative, white bar), a linear heptapeptide CNYYSNS (SEQ ID NO: 5) (positive control, black bar) or with the cyclopeptide YSNSG (SEQ ID NO: 3) at 20 μM (grey bar). After an incubation period of 48 hours, the migrated cells were stained with crystal violet and counted under reverse microscopy.
Cell invasion was tested in modified Boyden chambers (ThinCert®, a cell culture insert for 24-well plates, internal diameter 8.36 mm, 8 μm pore, Greiner Bio-one, Courtaboeuf, France). Briefly, 5×10^4 cells were suspended in DMEM medium without FCS and containing 0.2% BSA and seeded onto membranes spread with Matrigel (30 μg/cm^2). DMEM medium supplemented with 10% FCS and 2% BSA were used as the chemo-attracting agent. […] The cells remaining on the upper surface of the membranes were eliminated by scraping and those on the lower surface were counted using a reverse microscope (Pasco et al, 2000(a)). The counted cells corresponded to the cells which had crossed the Matrigel mat then the porous membrane of the Boyden chamber; they thus reflected the migration and invasion capacities of the tumour cells through an extracellular matrix or a basal membrane, reproduced in this case by the Matrigel.

Regarding “CNYYSNS (Synthetic linear heptapeptide) [linear peptide NC1 [α3(IV) 185-191], the 7 N-terminal amino acids of the 185-203 domain; positive control, reference compound]”, the “In vitro proliferation of UACC-903 human melanoma cells, change vs control” value in assay [1] (linear heptapeptide positive control, concentration not given) is on record as −45%. Also, in the assay on TIMP-3, the “Secretion of TIMP-3” value is reported as “not modified”. Also, the “Secretion of TIMP-1” value with TIMP-1 is on record as “not modified”. In the assay with TIMP-2, the “secretion of TIMP-2” value is reported as “dose-dependent increase”. In the assay on u-PA, the “secretion of u-PA” value is on record as “reduction observed”. The “secretion of t-PA” value in the assay on t-PA is on record as “reduction observed”. Besides, the “reduction in the migration of UACC-903 cells” value in the assay with UACC-903 melanoma cells is recorded as “similar”.
As to `NC(=O)CC1NC(=O)C(CO)NC(=O)C(Cc2ccc(O)cc2)NC(=O)CNC(=O)C(CO)NC1=O` (stereo not shown) [cyclopeptide YSNSG, cyclopeptide YSNSG (SEQ ID NO: 3)] (cyclo(GYSNS); configuration not given here), the “inhibited the proliferation of UACC-903 melanoma cells” value in assay [1] (5 μM) turned out to be 27%; in assay [1] (10 μM), 29%; in assay [1] (20 μM), 40%. Further, in the assay with TIMP-3, the “Secretion of TIMP-3” value is “not modified”. In the assay with TIMP-1, the “Secretion of TIMP-1” value is “not modified”. Also, the “secretion of TIMP-2” value in the assay on TIMP-2 is on record as “dose-dependent increase”. Moreover, the “secretion of u-PA” value with u-PA was “dose-dependent reduction”. The “secretion of t-PA” value in the assay with t-PA is recorded as “dose-dependent reduction”. Besides, the “reduction in the migration of UACC-903 cells” value with UACC-903 melanoma cells was −47%.
